Experimental findings from article PMC9667936, “Functional mapping of the 14-3-3 hub protein as a guide to design 14-3-3 molecular glues” (Chemical Science, 2022) are described below.

The Kd is the equilibrium constant for the complex coming apart.

Like-named read-outs stand apart in the source and are kept apart here. Where a SMILES comes first, the peptide text is derived from it. [ ]: non-standard residue; d: D form. ξ: configuration not given here. Phe(4-NO2) = N[C@@H](Cc1ccc([N+](=O)[O-])cc1)C(=O)O; ξAla(4-thiazolyl) = NC(Cc1cscn1)C(=O)O; pS = N[C@@H](COP(=O)(O)O)C(=O)O; β3hS = N[C@@H](CO)CC(=O)O; Nva = CCC[C@H](N)C(=O)O; βAla = NCCC(=O)O

This experiment has as its target T1, 14-3-3γ (Homo sapiens, UniProt P61981).
T1 construct: made in house; host or cells: E. coli NiCo21 (DE3)
T1 sequence (P61981 1-247): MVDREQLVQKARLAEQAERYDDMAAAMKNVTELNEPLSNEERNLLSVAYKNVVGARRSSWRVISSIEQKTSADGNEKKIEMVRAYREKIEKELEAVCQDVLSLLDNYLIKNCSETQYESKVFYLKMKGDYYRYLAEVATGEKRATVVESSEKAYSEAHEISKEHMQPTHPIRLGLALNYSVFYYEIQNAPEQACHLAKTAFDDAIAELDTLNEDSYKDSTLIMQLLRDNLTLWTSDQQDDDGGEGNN
Description: Isothermal titration calorimetry (ITC) of 14-3-3 binding to peptide. As to conditions: for ΔG / Kd / ΔH / -TΔS: 25 °C; for Kd: Table S6 (unit as in Table S5). The method, then: 14-3-3γ protein expression (FP/ITC experiments)
A pPROEX HTb expression vector encoding the human 14-3-3 protein gamma (14-3-3γ) with an N-terminal his6-tag was transformed by heat shock into NiCo21 (DE3) competent cells. Single colonies were cultured in 50 mL LB medium (100 µg/mL ampicillin). After overnight incubation at 37 °C, cultures were transferred to 2 L TB media (100 µg/mL ampicillin, 1 mM MgCl2) and incubated at 37 °C until an OD600 nm of 0.8-1.2 was reached. Protein expression was then induced with 0.4 mM isopropyl-β-d-thiogalactoside (IPTG), and cultures were incubated overnight at 18 °C. Cells were harvested by centrifugation (8600 rpm, 20 minutes, 4 °C) and resuspended in lysis buffer (50 mM Hepes, pH 8.0, 300 mM NaCl, 12.5 mM imidazole, 5 mM MgCl2, 2 mM βME) containing cOmplete™ EDTA-free Protease Inhibitor Cocktail tablets (1 tablet/100 ml lysate) and benzonase (1 µl/100 ml). After lysis using a C3 Emulsiflex-C3 homogenizer (Avestin), the cell lysate was cleared by centrifugation (20000 rpm, 30 minutes, 4 °C) and purified using Ni2+-affinity chromatography (Ni-NTA superflow cartridges, Qiagen).
Typically two 5 mL columns (flow 5 mL/min) were used for a 2 L culture in which the lysate was loaded on the column washed with 10 CV wash buffer (50 mM Hepes, pH 8.0, 300 mM NaCl, 25 mM imidazole, 2 mM βME) and eluted in several fractions (2-4 CV) of elution buffer (50 mM Hepes, pH 8.0, 300 mM NaCl, 250 mM imidazole, 2 mM βME). Fractions containing the 14-3-3 protein were combined and dialyzed into 25 mM HEPES pH 8.0, 100 mM NaCl, 10 mM MgCl2, 500 µM TCEP. […]
The peptides 1 and 2a-d were synthesized on 50 µmol scale on a Rink amide MBHA resin (Novabiochem, 0.52 mmol/g loading) using an automated Intavis MultiPep RSi peptide synthesizer.
Deprotection was performed twice per cycle with 20% v/v piperidine in DMF for 8 minutes. Fmoc-protected amino acids were mixed in 5 equivalents of HBTU and 9 equivalents of DIPEA in DMF, and coupled to the resin. With the exception of phosphoserine, which was coupled once for 60 minutes, all amino acids were coupled to the resin twice for 30 minutes. Capping of unreacted amino acids was performed with a mixture of acetic anhydride/pyridine/DMF (1:1:3) for 5 minutes. βAla was incorporated as a spacer between the sequence and Lys(Alloc), to which a FITC fluorophore will be coupled for fluorescence anisotropy studies.
The peptides 1 and 2e-i were synthesized manually on a 50 µmol scale using Rink amide MBHA resin (Novabiochem, 0.52 mmol/g loading) via Fmoc based solid phase peptide synthesis. […]
(lex: 485 ± 20 nm; lem: 535 ± 25 nm; mirror: Dichroic 510; flashes: 20; integration time: 50 ms; settle time:
0 ms; gain: optimal; and Z-position: calculated from well). […]
Data was obtained and averaged based on two
To determine the cooperativity parameters from the 2D-titration of 14-3-3/ChREBP/2d (as described above) we have used the general framework for straightforward model construction of multi-component thermodynamic equilibrium systems as described by Geertjens et al. (2021).10 This general platform generates a model to describe multi-component equilibrium systems when given a system description.
In our case we gave the following system description: […]
α (with 95% confidence interval) and the error-landscape of the determine parameters.
Fluorescence anisotropy (FA) – Selectivity study: Peptides representing 14-3-3 binding partners (including ChREBP) were titrated in a 2-fold dilution series (starting at 100 µM) to 20 nM of fluorescein-labeled peptide 2d in presence and absence of, respectively, 2 µM 14-3-3γ in FA buffer (10 mM HEPES pH 7.4, 150 mM NaCl, 0.1% (v/v) Tween20, 0.1% (w/v) BSA). Dilution series were made in a polystyrene (non-binding) low-volume Corning Black Round Bottom 384-well plates (Corning 4514 or 4511).
Measurements were performed directly after plate preparation, using a Tecan Infinite F500 plate reader at room temperature (lex: 485 ± 20 nm; lem: 535 ± 25 nm; mirror: Dichroic 510; flashes: 20; integration […]
(In general: Isothermal titration calorimetry measures the heat released or taken up as one component is titrated into another.)

Setting [1] is: Table S5, ITC Kd / Kd of peptide 1, first unlabelled line (replicate 1).
The mark [2] stands for this setting: Table S5, ITC Kd / Kd of peptide 1, second unlabelled line (replicate 2).
The mark [3] stands for this setting: Table S5, ΔG minus ΔG of peptide 1, ITC, first unlabelled line (replicate 1).
The mark [4] stands for this setting: Table S5, ΔG minus ΔG of peptide 1, ITC, second unlabelled line (replicate 2).
The mark [5] stands for this setting: Table S5, ΔG of peptide minus ΔG of peptide 1, ITC, mean of n = 2.
[6] abbreviates: ITC, average of two runs, read-out: Kd.
[7] abbreviates: Table S6 (unit given in Fig. 4 legend), ITC, average of two runs.
The mark [8] stands for this setting: Table S6, ITC, average of two runs.

`CCC[C@H](NC(=O)[C@H](N)CCCCN)C(=O)N[C@@H](Cc1ccc([N+](=O)[O-])cc1)C(=O)NC(Cc1cscn1)C(=O)N[C@@H](COP(=O)(O)O)C(=O)N[C@@H](C)C(=O)N[C@@H](CO)CC(=O)NCCC(=O)N[C@@H](Cc1ccc([N+](=O)[O-])cc1)C(=O)N[C@@H](CCCCN)C(N)=O` (stereo partly drawn) [4c] (H-[dK][Nva][Phe(4-NO2)][ξAla(4-thiazolyl)][pS]A[β3hS][βAla][Phe(4-NO2)]K-NH2; N-terminus and C-terminus assumed): the “ΔΔG of point mutation (ITC)” value (ITC, relative to 1, mean ± SD, SD) stood at 1.7 ± 0.1 kcal/mol. The “Fold change to 1” value reads like this: under setting [1], 15.0; under setting [2], 18.9. Besides, the ΔG runs as follows: (Table S5, ITC, mean of n = 2) -8.3 kcal/mol; (Table S5, ITC, replicate 1) -8.4 kcal/mol; (Table S5, ITC, replicate 2) -8.3 kcal/mol; under setting [8], -8,35 kcal mol^-1; (Table S6, ITC, run 1) -8,421 kcal mol^-1; (Table S6, ITC, run 2) -8,278 kcal mol^-1. The “ΔΔG to 1” value under setting [3] turned out to be 1.6 kcal/mol, the “ΔΔG to 1” value under setting [4] is 1.7 kcal/mol and the “ΔΔG to 1” value under setting [5] stood at 1.7 kcal/mol. Besides, the Kd reads like this: under setting [6], 764 nM; (ITC, run 1) 6,72E-07 M; (ITC, run 2) 8,56E-07 M. Moreover, the ΔH by setting is: under setting [7], -4,81 kcal mol^-1; (Table S6, ITC, run 1) -4,976 kcal mol^-1; (Table S6, ITC, run 2) -4,649 kcal mol^-1. The “-TΔS” value runs as follows: under setting [8], -3,54 kcal mol^-1; (Table S6, ITC, run 1) -3,445 kcal mol^-1; (Table S6, ITC, run 2) -3,629 kcal mol^-1.
For the compound `CCC[C@H](NC(=O)[C@H](N)CCCCN)C(=O)N[C@@H](Cc1ccc([N+](=O)[O-])cc1)C(=O)NC(Cc1cscn1)C(=O)N[C@@H](COP(=O)(O)O)C(=O)N[C@@H](Cc1ccc([N+](=O)[O-])cc1)C(=O)N[C@@H](CO)CC(=O)NCCC(=O)N[C@@H](Cc1ccccc1)C(=O)N[C@@H](CCCCN)C(N)=O` (stereo partly drawn) [5b] (H-[dK][Nva][Phe(4-NO2)][ξAla(4-thiazolyl)][pS][Phe(4-NO2)][β3hS][βAla]FK-NH2; N-terminus and C-terminus assumed), the “increase of enthalpy (ΔH) on removal of the nitro group, relative to peptide 1” value (ITC, n = 2, Fig. 4c) was about 6 kcal/mol. For the same compound, the ΔG is, setting by setting: (Table S5, ITC, mean of n = 2) -7.9 kcal/mol; (Table S5, ITC, replicate 1) -7.9 kcal/mol; (Table S5, ITC, replicate 2) -7.8 kcal/mol; under setting [8], -7,88 kcal mol^-1; (Table S6, ITC, run 1) -7,943 kcal mol^-1; (Table S6, ITC, run 2) -7,821 kcal mol^-1. The “ΔΔG to 1” value runs as follows: under setting [3], 2.1 kcal/mol; under setting [4], 2.2 kcal/mol; under setting [5], 2.1 kcal/mol. Further, the Kd was 1450 nM under setting [6]; 1,06E-06 M (ITC, run 1); 1,85E-06 M (ITC, run 2). The ΔH is on record as -4,72 kcal mol^-1 under setting [7]; -4,716 kcal mol^-1 (Table S6, ITC, run 1); -4,725 kcal mol^-1 (Table S6, ITC, run 2). The “-TΔS” value is -3,16 kcal mol^-1 under setting [8]; -3,227 kcal mol^-1 (Table S6, ITC, run 1); -3,096 kcal mol^-1 (Table S6, ITC, run 2).
On to `CCC[C@H](NC(=O)[C@H](N)CCCCN)C(=O)N[C@@H](Cc1ccc([N+](=O)[O-])cc1)C(=O)N[C@@H](C)C(=O)N[C@@H](COP(=O)(O)O)C(=O)N[C@@H](Cc1ccc([N+](=O)[O-])cc1)C(=O)N[C@@H](CO)CC(=O)NCCC(=O)N[C@@H](Cc1ccc([N+](=O)[O-])cc1)C(=O)N[C@@H](CCCCN)C(N)=O` [3a] (H-[dK][Nva][Phe(4-NO2)]A[pS][Phe(4-NO2)][β3hS][βAla][Phe(4-NO2)]K-NH2; N-terminus and C-terminus assumed), for which the “Fold change to 1” value under setting [1] is listed as 2.0; the “Fold change to 1” value under setting [2] stood at 1.5; the “Fold change to 1” value (Table S5, ITC Kd of peptide divided by Kd of peptide 1, mean of n = 2) stood at 1.8. The ΔG is on record as -9.7 kcal/mol (Table S5, ITC, mean of n = 2); -9.6 kcal/mol (Table S5, ITC, replicate 1); -9.8 kcal/mol (Table S5, ITC, replicate 2); -9,69 kcal mol^-1 under setting [8]; -9,622 kcal mol^-1 (Table S6, ITC, run 1); -9,764 kcal mol^-1 (Table S6, ITC, run 2). Further, the “ΔΔG to 1” value is, setting by setting: under setting [3], 0.4 kcal/mol; under setting [4], 0.3 kcal/mol; under setting [5], 0.3 kcal/mol. Further, the Kd was 79.1 nM under setting [6]; 8,86E-08 M (ITC, run 1); 6,97E-08 M (ITC, run 2). Besides, the ΔH under setting [7] was -7,40 kcal mol^-1; the ΔH (Table S6, ITC, run 1) is -7,998 kcal mol^-1; the ΔH (Table S6, ITC, run 2) is -6,809 kcal mol^-1. For the same compound, the “-TΔS” value is, setting by setting: under setting [8], -2,29 kcal mol^-1; (Table S6, ITC, run 1) -1,624 kcal mol^-1; (Table S6, ITC, run 2) -2,955 kcal mol^-1.
`CCC[C@H](NC(=O)[C@H](N)CCCCN)C(=O)N[C@@H](Cc1ccc([N+](=O)[O-])cc1)C(=O)NC(Cc1cscn1)C(=O)N[C@@H](COP(=O)(O)O)C(=O)N[C@@H](Cc1ccc([N+](=O)[O-])cc1)C(=O)N[C@@H](CO)CC(=O)NCCC(=O)N[C@@H](C)C(=O)N[C@@H](CCCCN)C(N)=O` (stereo partly drawn) [5c] (H-[dK][Nva][Phe(4-NO2)][ξAla(4-thiazolyl)][pS][Phe(4-NO2)][β3hS][βAla]AK-NH2; N-terminus and C-terminus assumed): the ΔG is reported as -7.4 kcal/mol (Table S5, ITC, mean of n = 2); -7.4 kcal/mol (Table S5, ITC, replicate 1); -7.3 kcal/mol (Table S5, ITC, replicate 2); -7,38 kcal mol^-1 under setting [8]; -7,446 kcal mol^-1 (Table S6, ITC, run 1); -7,317 kcal mol^-1 (Table S6, ITC, run 2). Moreover, the “ΔΔG to 1” value under setting [3] was 2.6 kcal/mol, the “ΔΔG to 1” value under setting [4] is on record as 2.7 kcal/mol and the “ΔΔG to 1” value under setting [5] came to 2.6 kcal/mol. Moreover, the Kd under setting [6] is 3910 nM; the Kd (ITC, run 1) is on record as 3,48E-06 M; the Kd (ITC, run 2) was 4,33E-06 M. The ΔH is, setting by setting: under setting [7], -2,89 kcal mol^-1; (Table S6, ITC, run 1) -2,242 kcal mol^-1; (Table S6, ITC, run 2) -3,539 kcal mol^-1. Moreover, the “-TΔS” value is recorded as -4,49 kcal mol^-1 under setting [8]; -5,204 kcal mol^-1 (Table S6, ITC, run 1); -3,779 kcal mol^-1 (Table S6, ITC, run 2).
